Reference: patent publication US11634452B2, “Compounds for treating neurodegenerative disorders” (ETHNODYNE, priority 2017, dated 2023)

Columns and labels:
[1] = test system: Primary Human Umbilical Vein Endothelial Cells (HUVEC); assay: Cytotoxicity test, cell growth inhibition by MTS assay; assay type: cell-based; conditions: 72 h incubation, 8 concentrations
Description: (§1) Human MRC-5 cell line derived from normal lung tissue and human HCT-116 colorectal carcinoma were obtained from the American Type Culture Collection (ATCC, Rockville, Md.). Primary Human Umbilical Vein Endothelial Cells (HUVEC) isolated from the vein of the umbilical cord were obtained from Promocell (Germany). Cell lines were cultured according to the supplier's instructions. Human HCT-116 cells were grown in Gibco McCoy's 5A supplemented with 10% fetal calf serum (FCS) and 1% glutamine. Human MRC-5 cells were grown in DMEM supplemented with 10% fetal calf serum (FCS) and 1% glutamine. HUVECs were grown in Endothelial Cell Growth Medium 2 which is low-serum (2% V/V) media optimized for the cultivation of endothelial cells from large blood vessels.
(§2) Cells were counted using a Vi-cell XR (Beckman Coulter) and their viability assessed by 0.25% trypan blue dye exclusion. They were tested for the presence of mycoplasma before experiments with the Mycoplasma PCR Detection Kit (Applied Biological Materials Inc., Canada) in accordance with the manufacturer instructions and only mycoplasma-free cells were used for further investigations.
(§3) Cell lines were maintained at 37° C. in a humidified atmosphere containing 5% CO2. Cell growth inhibition was determined by an MTS assay according to the manufacturer's instructions (Promega, Madison, Wis., USA). […] After 24 h of culture, the cells were treated with the compound CR777 of example 1 at 8 different final concentrations. Each concentration was obtained from serial dilutions in culture medium starting from the stock solution. Control cells were treated with the vehicle. Experiments were performed in triplicate.
(§4) After 72 h of incubation, 20 μL of CellTiter 96® AQueous One Solution Reagent was added for 2 h before recording absorbance at 490 nm with a spectrophotometric plate reader. The dose-response curves were plotted with Graph Prism software and the IC50 values were calculated using the Graph Prism software from polynomial curves (four or five-parameter logistic equations).

[2] = test system: human HCT-116 colorectal carcinoma; assay: as above; assay type: cell-based; conditions: HCT-116, 72 h incubation, 8 concentrations
Description: as §1, §2, §3, §4

CC1=C(CO)C(=O)O[C@@H]([C@@H](C)[C@H]2CCC3C4C[C@H](SC[C@H](NC(=O)CC[C@@H](N)C(=O)O)C(=O)NCC(=O)O)[C@]5(O)[C@@H](O)C=CC(=O)[C@]5(C)C4CC[C@@]32C)C1 (some centres unmarked) [CR777]
toxicity (cell growth inhibition, MTS) [1]: does not show any toxicity | toxicity (cell growth inhibition, MTS) [2]: does not show any toxicity
